Earlier results on one molecule are cited in patent US12576027B2, “Diclofenac topical formulation with a high absorption rate” (IBSA INSTITUT BIOCHIMIQUE SA, priority 2021, dated 2026).

For this series the following is noted: orally administered.

In the case of `O=C(O)Cc1ccccc1Nc1c(Cl)cccc1Cl` [diclofenac, 2-[(2,6-dichlorophenyl)-amino]benzeneacetic acid], the absorption result is recorded as “almost complete” and the “time to high hematic peaks from administration” value is at most 2 h.
